These results are taken from patent US11613547B2 (priority 2019, dated 2023).

For series [1], the target named is T1, hDOR (Homo sapiens, UniProt P41143). The series is described as follows: Tango β-arrestin recruitment assay, hDOR. Further details: expressed in transfected cells; host or cells: HTLA cells expressing TEV fused-beta-Arrestin2. The series is classed as cell-based. Background: Arrestin recruitment assays detect the binding of arrestin to an activated receptor.
Series [2] concerns the target T2, mouse mu opioid receptor (mMOR) (Mus musculus, UniProt P42866).
T2 construct: expressed in transfected cells; host or cells: HEK-293T, transient (PEI), with BRET sensor cDNAs
The series is described as follows: cell-based. The series is classed as cell-based.

The target in series [3] is T3, rat kappa opioid receptor (rKOR) (Rattus norvegicus, UniProt P34975).
T3 construct: expressed in transfected cells; host or cells: HEK-293T, transient (PEI), with BRET sensor cDNAs
The series is described as follows: BRET assay, G-protein activation, rKOR. The series is classed as cell-based. (In BRET a luciferase serves as donor, and the signal depends on an acceptor being close.)

For series [4], the target named is T1, hDOR. The series is described as follows: cAMP inhibition assay, hDOR. The series is classed as cell-based. Further details: expressed in transfected cells.
The target in series [5] is T4, mKOR (Mus musculus, UniProt P33534).
T4 construct: expressed in transfected cells
The series is described as follows: Radioligand competition binding ([125I]IBNtxA), CHO membranes, mKOR. The conditions noted are these: vs 125IBNtxA (0.1 nM), mean ± SEM. In general terms: Displacement assays read how much labelled ligand stays bound in the presence of the test substance.

The target of series [6] is T5, Y312W-hKOR (Homo sapiens, UniProt P41145, Y312W). The series is described as follows: cAMP inhibition assay, Y312W-hKOR mutant. The series is classed as cell-based. Further details: expressed in transfected cells; host or cells: HEK 293T (inferred from the general cAMP method).
In series [7] the test system is C57BL/6J mice. The series is described as follows: 55° C. warm-water tail-withdrawal assay. The conditions noted are these: icv, 55° C. tail withdrawal. The series is classed as in vivo, mouse. The protocol:
Tail-withdrawal assay The 55° C. warm-water tail-withdrawal assay was conducted in mice as a measure of acute thermal antinociception as described previously (Reilley et al., 2010). Briefly, each mouse was tested for baseline tail-withdrawal latency prior to drug administration. Following drug administration, the latency for each mouse to withdraw the tail was measured every 10 minutes until latency returned to the baseline value. A maximum response time of 15 seconds was utilized to prevent tissue damage. […] Data are reported as percent antinociception, calculated by the equation: % antinociception=100×[(test latency−baseline latency)/(15−baseline latency)]. This was utilized to account for innate variability between mice. Compounds were administered either, […] (IP) or intracerebroventricular (icv) and the analgesic action of compounds was assessed at the peak effect as described previously (Haley and McCormick, 1957). In brief, mice were anesthetized using isoflurane. A small incision was made, and the drug (2 μl/mouse) was injected (using a 10 μL Hamilton syringe fitted to a 27-gauge needle) into the right lateral ventricle at the following coordinates: 2 mm caudal to bregma, 2 mm lateral to sagittal suture, and 2 mm in depth. Mice were tested for analgesia at the peak effect post injection.

Series [8] concerns the target T6, mMOR (Mus musculus, UniProt P42866).
T6 construct: expressed in transfected cells
The series is described as follows: Radioligand competition binding ([125I]IBNtxA), CHO membranes, mMOR. The conditions noted are these: vs 125IBNtxA (0.1 nM), mean ± SEM.

Series [9] has as its target T7, mDOR (Mus musculus, UniProt P32300).
T7 construct: expressed in transfected cells
The series is described as follows: [35S]GTPγS functional assay, mDOR. The series is classed as biochemical.

Series [10] addresses T8, hKOR (Homo sapiens, UniProt P41145).
T8 construct: expressed in transfected cells; host or cells: HEK 293T (ATCC CRL-11268), transient
The series is described as follows: Tango β-arrestin recruitment assay, hKOR. The series is classed as cell-based.

Series [11] concerns the target T9, mouse delta opioid receptor (mDOR) (Mus musculus, UniProt P32300).
T9 construct: expressed in transfected cells; host or cells: HEK-293T, transient (PEI), with BRET sensor cDNAs
The series is described as follows: BRET assay, G-protein activation, mDOR. The series is classed as cell-based.

The target of series [12] is T6, mMOR. The series is described as follows: [35S]GTPγS functional assay, mMOR. The series is classed as biochemical.
Series [13] addresses T7, mDOR. The series is described as follows: Radioligand competition binding ([125I]IBNtxA), CHO membranes, mDOR. The conditions noted are these: vs 125IBNtxA (0.1 nM), CHO membranes, mean ± SEM.
Series [14] deals with T10, hMOR (Homo sapiens, UniProt P35372).
T10 construct: expressed in transfected cells; host or cells: HEK 293T (ATCC CRL-11268), transient
The series is described as follows: cell-based. The series is classed as cell-based.

The target in series [15] is T8, hKOR. The series is described as follows: cAMP inhibition assay (GloSensor, HEK 293T), hKOR. The series is classed as cell-based.
Series [16] concerns the target T5, Y312W-hKOR. The series is described as follows: Tango-arrestin recruitment assay, Y312W-hKOR mutant. The series is classed as cell-based. Further details: expressed in transfected cells. The following applies: Tango, compared with wild-type KOR.
For series [17], the target named is T4, mKOR. The series is described as follows: [35S]GTPγS functional assay, mKOR. The series is classed as biochemical.
Series [18] addresses T3, rat kappa opioid receptor (rKOR). The series is described as follows: BRET assay, arrestin recruitment, rKOR. The series is classed as cell-based. The following applies: BRET.
The target in series [19] is T2, mouse mu opioid receptor (mMOR). The series is described as follows: cell-based. The series is classed as cell-based. The source holds these as a separate data set.
The target in series [20] is T10, hMOR. The series is described as follows: Tango β-arrestin recruitment assay, hMOR. The series is classed as cell-based. The conditions noted are these: Tango.
In series [21] the test system is C57BL/6J mice. The series is described as follows: Conditioned place preference and aversion. The following applies: MP1207 100 nmol icv, morphine 10 mg/kg IP, U50,488h 30 mg/kg IP.
Series [22] deals with C57BL/6J mice. The conditions noted are these: icv, same assay (Aldrich et al., 2014); cited from earlier work.
The subject of another series is C57 mice. The series is described as follows: Respiratory rate (CLAMS). The conditions noted are these: 10 mg/kg IP or 30 nmol icv, 10 mg/kg.

Several values for one entry are separate records, joined by “and”; a condition that tells them apart may be missing. Identical values can stand only once. Entries after “also recorded” stand apart in the source; their conditions may differ. Like-named read-outs stand apart in the source and are kept apart here.

With `N=C(N)NCc1cccc(C(=O)N[C@@H]2CCC3C4Cc5ccc(O)c6c5[C@@]3(CCN4CC3CC3)C2O6)c1` (stereo partly drawn) [MP1208, N-((7R,12bS)-3-(Cyclopropylmethyl)-9-hydroxy-2,3,4,4a,5,6,7,7a-octahydro-1H-4,12-methanobenzofuro[3,2-e]isoquinolin-7-yl)-3-(guanidinomethyl)benzamide], the “Arrestin recruitment pEC50 ± SEM” value at hDOR [1] (hDOR, Tango) turned out to be 5.5 ± 0.27. In addition, the EC50 (in general, the concentration needed to bring the measured effect to its halfway point) on hDOR [1] (hDOR, Tango) was 3620 nM; in series [3] (BRET, read-out: Gi EC50 rKOR) it was 1.1 nM; at hKOR [10] (Tango, WT-hKOR), 16.4 nM; in series [11] (mDOR, BRET), 26.6 nM; on mMOR [12] ([35S]GTPγS, nM ± SEM), 1.1 nM and 1.13 nM; on hMOR [14] it was 1.86 nM. Also, the concentration for a half-maximal effect (EC50) at hMOR [14] (read-out: Gi EC50 hMOR) was 0.008 nM; at hKOR [15] (cAMP inhibition, read-out: Gi EC50 hKOR), 0.14 nM; at mKOR [17] ([35S]GTPγS, nM ± SEM), 1.4 nM and 1.36 nM. Also, the maximal response (Emax) (commonly the greatest response seen or fitted, relative to the assay's reference) was 62 ± 16.7% at hDOR [1] (read-out: Arrestin recruitment Emax % ± SEM); 40 ± 2.4% in series [3] (read-out: Gi Emax rKOR); 39 ± 1.8% at hDOR [4] (read-out: cAMP inhibition Emax % ± SEM); 97 ± 1% on Y312W-hKOR [6] (read-out: Gi Emax Y312W-hKOR); 10 to 15% at mDOR [9]; 48 ± 2.4% at hKOR [10]. Moreover, the Emax in series [11] (read-out: G-Protein activation Emax % ± SEM) worked out at 58 ± 3.3%; at mMOR [12], 54 ± 0.7%; at hMOR [14] (HEK-293T, read-out: Gi Emax hMOR) it was 42 ± 1.3%; on hKOR [15] (HEK-293T, read-out: Gi Emax hKOR), 96 ± 1.9%; at mKOR [17], 43 ± 0.8%; in [19] (read-out: Gi Emax mMOR), 41 ± 3%. In addition, in series [2], the “arrestin recruitment at mMOR” value is listed as “no recruitment of βarrestin-2; also recorded: no arrestin recruitment was observed”. For the same molecule, in [3] (BRET), the “Gi pEC50±SEM rKOR” value came out at 8.97±0.29. Moreover, the “cAMP inhibition pEC50 ± SEM” value on hDOR [4] (hDOR) came to 8.6 ± 0.13. The Ki – broadly, a measure of affinity in units of concentration, obtained from inhibition or displacement – was determined as 0.28 nM on mKOR [5], 0.34 ± 0.01 nM at mMOR [8] and 19.3 nM at mDOR [13]. The “Gi pEC50±SEM Y312W-hKOR” value on Y312W-hKOR [6] (cAMP inhibition) is 10.44±0.05. Moreover, the “antinociceptive ED50 (95% CI)” value in the series with C57BL/6J mice [7] is 19.8 (12.6-34.0) nmol and 19.8 nmol. Besides, the “efficacy at mDOR” value on mDOR [9] ([35S]GTPγS) is “only weak efficacy”. The IC50 (as a rule, the concentration that gives 50% inhibition) at mDOR [9] ([35S]GTPγS, antagonism vs 100 nM agonist) came to 11.4 ± 0.3 nM. Moreover, the “Arrestin pEC50±SEM hKOR” value on hKOR [10] (Tango, WT-hKOR) was determined as 7.79±0.14. The “G-Protein activation pEC50 ± SEM” value in [11] (mDOR, BRET) worked out at 7.6 ± 0.20. Further, the “Gi pEC50±SEM hKOR” value at hKOR [15] (cAMP inhibition) is 9.9±0.07. Moreover, at hKOR [15] (cAMP inhibition vs Tango, against U50,488H as control), the “Bias factor toward G protein, hKOR” value amounted to 23. For the same molecule, at Y312W-hKOR [16], the “arrestin recruitment at Y312W-hKOR” value is on record as “further reduction of arrestin recruitment; also recorded: reduced arrestin measurement”. Further, the “arrestin recruitment at rKOR” value in series [18] was “no recruitment of βarrestin-2; also recorded: no arrestin recruitment was observed”. The “Gi pEC50±SEM mMOR” value in series [19] worked out at 8.64±0.29. In addition, the “arrestin recruitment at hMOR” value on hMOR [20] is “no recruitment of arrestin was seen; also recorded: no arrestin recruitment was observed”.
`CN1CC[C@]23c4c5ccc(O)c4O[C@H]2[C@@H](O)C=C[C@H]3[C@H]1C5` [Morphine, reference compound]: the “conditioned place preference or aversion (CPP/CPA)” value in the series on C57BL/6J mice [21] is “place preference”. Besides, the “antinociceptive ED50 (95% CI), reported” value in the series with C57BL/6J mice [22] was 2.35 (1.13-5.03) nmol and 2.35 nmol. The results for the respiratory rate entry in the series with C57 mice and in the series on C57 mice (listed as morphine) were “significant reduction in respiratory rates” and “decreased respiratory rate”, respectively.
